# Laboratory results as given in ChEMBL document CHEMBL1157687, “Inhibitory activity of Brazilian green propolis components and their derivatives on the release of cys-leukotrienes” (Bioorg Med Chem, 2010).
# System: HL-60 (Homo sapiens)
# Test: Antiallergic activity in Ca(2+)-stimulated differentiated human HL-60 cells assessed as inhibition of cys-leukotriene release after 6 days by ELISA
# Conditions: HL-60, 144 h
row,IC50 [µg/mL],SMILES
1,7,CC(C)=CCc1cc(/C=C/C(=O)O)cc(CC=C(C)C)c1O [ARTEPILLIN]
2,0.068,O=C(/C=C/c1ccc(O)c(O)c1)OCCc1ccccc1 [CAFFEIC ACID PHENETHYL ESTER]
3,> 10,CC(C)=CCc1cc(/C=C/C(=O)OCCc2ccccc2)cc2c1OC(C)(C)C=C2 [CULIFOLIN PHENETHYL ESTER]
4,1.6,CC(C)=CCc1cc(/C=C/C(=O)O)cc2c1OC(C)(C)C=C2 [CULIFOLIN]
5,10.3,CC(C)=CCc1cc(/C=C/C(=O)O)ccc1O [DRUPANIN]
6,2,COc1ccc(-c2oc3cc(O)cc(O)c3c(=O)c2O)cc1 [KAEMPFERIDE]
7,2.4,O=c1c(O)c(-c2ccc(O)cc2)oc2cc(O)cc(O)c12 [KAEMPFEROL]
8,6.1,O=C1C[C@@H](c2ccccc2)Oc2cc(O)cc(O)c21 [PINOCEMBRIN]

# Further lines, the compound ahead of its results:
row,SMILES,IC50 [µg/mL]
1,CC(C)=CCc1cc(/C=C/C(=O)OCCc2ccccc2)cc(CC=C(C)C)c1O [ARTEPILLIN C PHENETHYL ESTER],0.094
2,CC(C)=CCc1cc(/C=C/C(=O)OCCc2ccccc2)ccc1OC(=O)CCc1ccccc1 [BACCHARIN PHENETHYL ESTER],> 10
3,O=C(O)/C=C/c1ccc(O)c(O)c1 [CAFFEIC ACID],44
4,CC(C)=CCc1cc(/C=C/C(=O)OCCc2ccccc2)ccc1O [DRUPANIN PHENETHYL ESTER],0.2
5,CC(Cc1ccc(O)c(O)c1)C(C)Cc1ccc(O)c(O)c1 (centres undefined) [NORDIHYDROGUAIARETIC ACID],0.08
6,CC(c1cc2ccccc2s1)N(O)C(N)=O (centres undefined) [ZILEUTON],0.04
